Measurements taken from patent US20260209205A1, “CRYSTALLINE FORMS OF A TYK2 INHIBITOR AND USES THEREOF” (Alumis Inc., priority 2022, published 2026).
Where a name gives a salt, the structure may show the parent alone.

Key:
Assay type in all cases: physicochemical
[1] = Interconversion studies of Form 1 and Form 2 stirred in solvents; details: isopropanol (50° C., 7 days), acetone (50° C., 3 days), acetone/water 9/1 v/v (50° C., 1 day; room temperature, 1 day)
Procedure: In interconversion studies, equal amounts of Form 1 and Form 2 were added in various solvents and stirred at various temperatures for several days.

[2] = Dynamic vapor sorption (DVS) / hygroscopicity
[3] = Solid-state chemical and physical stability on storage

[2H]C([2H])([2H])CC(=O)c1cnc(NC(=O)C2CC2)cc1Nc1cccc(-c2ncn(C([2H])([2H])[2H])n2)c1OC [Form 1, N-(4-((2-methoxy-3-(1-(methyl-d3)-1H-1,2,4-triazol-3-yl)phenyl)amino)-5-(propanoyl-3,3,3-d3)pyridin-2-yl) cyclopropanecarboxamide hydrochloride]
Relative stability of crystalline forms (form obtained from equal amounts of Form 1 and Form 2) [1]: more stable crystalline form | Hygroscopicity [2]: slightly hygroscopic | Form change after DVS analysis ([2]; after DVS analysis): No form change | DVS reversable total mass change ([2]; between about 0% to about 80% relative humidity (RH) at 25° C.): about 0.2 wt. % | DVS reversable total mass change ([2]; between about 0% to about 90% relative humidity (RH) at 25° C.): about 0.3 wt. % | Time chemically and physically stable in the solid form ([3]; 40° C./75% RH): at least 10 days | Time chemically and physically stable in the solid form ([3]; 60° C.): at least 10 days | Time chemically and physically stable ([3]; ambient temperature and humidity): at least 12 months
